Values quoted from earlier work as cited in article PMC5143208 (American journal of transplantation : official journal of …, 2016).

Tested on: CCR2
Settings: in vitro

d(LGTFLKC) [ECL1i]
binding to CCR2: selectively bind CCR2 in a non-competitive way
